Data set [1] deals with platelet aggregation (rat blood, platelet-rich plasma). Put plainly: Inhibition of platelet aggregation ex vivo (rat blood). Format: in vivo. As to the method: The platelet aggregation measurements are carried out at 37° C. in glass tubes (Chrono-Log aggregometer—Kordia). 4 μl of the test compound (solution 100 times more concentrated than the desired final concentration, in DMSO) are mixed with 392 μl of fresh PRP, and incubated for 1 minute with stirring. Then, 4 μl of a solution of ADP at 250 μM are added to the mixture. The aggregation measurements are monitored for 6 to 8 minutes, with constant stirring, by recording the variations in the optical density according to the method of G.V.R. BORN (Born Nature (1962) 194, 927). Inhibition of Platelet Aggregation Ex Vivo (Rat Blood) Male rats of the Sprague-Dawley strain, weighing 250-300 g, are used in a proportion of 6 animals per batch. Each test compound is diluted in a glucose solution (5% glucose) containing 5% of cremophor and 3% of glycofurol. […] The sample is taken on 3.8% sodium citrate (1 volume for 9 blood volumes) by abdominal aortic puncture after the animal has been anesthetized with sodium pentobarbital. The platelet-rich plasma (PRP) is obtained by centrifugation of the blood at 300 g for 5 minutes, and the platelet aggregation measurements are carried out as described above. The results are calculated using the area under the curve of absorbance measured for 6 minutes, and expressed by the percentage (%) inhibition.

The test system is the same in data set [2]. Put plainly: Inhibition of platelet aggregation in vitro (rat blood). The format is cell-based. As to conditions: 0.1 h, Sprague-Dawley rat PRP, area under the curve of absorbance over 6 minutes. As to the method:
Inhibition of Platelet Aggregation In Vitro (Rat Blood) Blood is taken from male rats of the Sprague-Dawley strain, weighing 250-300 g. The sample is taken on 3.8% sodium citrate (1 volume for 9 blood volumes) by abdominal aortic puncture after the animal has been anesthetized with sodium pentobarbital. The platelet-rich plasma (PRP) is obtained by centrifugation of the blood at 300 g for 5 minutes, and the platelet aggregation measurements are carried out as described above. The results are calculated using the area under the curve of absorbance measured for 6 minutes, and expressed by the percentage inhibition. The platelet aggregation measurements are carried out at 37° C. in glass tubes (Chrono-Log aggregometer—Kordia). 4 μl of the test compound (solution 100 times more concentrated than the desired final concentration, in DMSO) are mixed with 392 μl of fresh PRP, and incubated for 1 minute with stirring. Then, 4 μl of a solution of ADP at 250 μM are added to the mixture. The aggregation measurements are monitored for 6 to 8 minutes, with constant stirring, by recording the variations in the optical density according to the method of G.V.R. BORN (Born Nature (1962) 194, 927).

Data set [3] relates to platelet aggregation (human blood, platelet-rich plasma). The experiment in a line: Inhibition of platelet aggregation in vitro (human blood). The format is cell-based. As to conditions: human PRP from healthy volunteers, ADP-induced, size of aggregation as height. As to the method: Inhibition of Platelet Aggregation In Vitro (Human Blood) Blood is taken from healthy volunteers, using 20 ml syringes containing 2 ml of buffered sodium citrate. The blood is transferred into polypropylene tubes and centrifuged for 5 minutes (100 g) at ambient temperature (without using the brake of the centrifuge). The platelet-rich plasma (PRP) supernatant is then removed, diluted, and counted for platelets before being used in the aggregation measurements. The platelet aggregation measurements are carried out at 37° C. in glass tubes (Chrono-Log aggregometer—Kordia). 4 μl of the test compound (solution 100 times more concentrated than the desired final concentration, in DMSO) are mixed with 392 μl of fresh PRP, and incubated for 1 minute with stirring. Then, 4 μl of a solution of ADP at 250 μM are added to the mixture. The aggregation measurements are monitored for 6 to 8 minutes, with constant stirring, by recording the variations in the optical density according to the method of G.V.R. BORN (Born Nature (1962) 194, 927). The results are calculated using the size of the aggregation expressed as height, and expressed by the percentage inhibition.

Where [4] appears, read: oral gavage, t = 2 h after administration, read-out: Inhibition of platelet aggregation ex vivo (rat blood), Gavage (oral).

Where a name gives a salt, the structure may show the parent alone. Read-outs that look alike come from different tables or passages of the source.

As a reminder, the melting point is the temperature of the solid-liquid transition. Take `CCCC(=O)c1cnn([C@H]2CC[C@H](NC(=O)c3cn(CC(=O)N4CCN(CCOC)CC4)c4ccc(Cl)cc34)CC2)c1C` (as salt: hydrochloride) [Compound 2, 5-Chloro-1-{2-[4-(2-methoxyethyl)piperazin-1-yl]-2-oxoethyl}-1H-indole-3-carboxylic acid [4-(4-butyryl-5-methylpyrazol-1-yl)cyclohexyl]-amide hydrochloride]: the melting point came to 263 °C.

In turn, `CCCC(=O)c1cnn([C@H]2CC[C@H](NC(=O)c3cn(CC(=O)N4CCN(CCC(F)(F)F)CC4)c4ccc(Cl)cc34)CC2)c1C` (as salt: hydrochloride) [Compound 3, 5-Chloro-1-{2-oxo-2-[4-(3,3,3-trifluoropropyl)piperazin-1-yl]ethyl}-1H-indole-3-carboxylic acid [4-(4-butyryl-5-methylpyrazol-1-yl)cyclohexyl]amide hydrochloride] returned a melting point of 249 °C.

As a reminder, the inhibition is the drop in the measured response relative to a control, in per cent. As a reminder, the IC50 is the midpoint of a concentration-inhibition curve. A high value points to lower potency. Consider `CCCC(=O)c1cnn([C@H]2CC[C@H](NC(=O)c3cn(CC(=O)N4CCN(C)CC4)c4ccc(Cl)cc34)CC2)c1C` [Compound 1, 5-Chloro-1-[2-(4-methylpiperazin-1-yl)-2-oxoethyl]-1H-indole-3-carboxylic acid [4-(4-butyryl-5-methyl-pyrazol-1-yl)-cyclohexyl]amide hydrochloride], for which the inhibition at 3 mg/kg turned out to be 79 ± 5% in data set [1] (0.5 h, intravenous infusion, 30 min after administration, read-out: Inhibition of platelet aggregation ex vivo (rat blood), Infusion (Intravenous)) and 42.8 ± 10.7% in data set [1] (setting [4]). The 50% inhibitory concentration (IC50) amounted to 91 nM in data set [2] and 270 nM in data set [3].

`CCCC(=O)c1cnn([C@H]2CC[C@H](NC(=O)c3cn(CC(=O)N4CCN(CCOC)CC4)c4ccc(Cl)cc34)CC2)c1C` [Compound 2, 5-Chloro-1-{2-[4-(2-methoxyethyl)piperazin-1-yl]-2-oxoethyl}-1H-indole-3-carboxylic acid [4-(4-butyryl-5-methylpyrazol-1-yl)cyclohexyl]-amide hydrochloride] returned an IC50 in data set [2] of 80 nM.

For `CCCC(=O)c1cnn([C@H]2CC[C@H](NC(=O)c3cn(CC(=O)N4CCN(CCC(F)(F)F)CC4)c4ccc(Cl)cc34)CC2)c1C` [Compound 3, 5-Chloro-1-{2-oxo-2-[4-(3,3,3-trifluoropropyl)piperazin-1-yl]ethyl}-1H-indole-3-carboxylic acid [4-(4-butyryl-5-methylpyrazol-1-yl)cyclohexyl]amide hydrochloride], in data set [2], the IC50 stood at 294 nM.

`CCCC(=O)c1cnn(C2CCN(NC(=O)c3cn(CC(=O)N4CCN(C)CC4)c4ccc(Cl)cc34)CC2)c1C` [Compound 4, 5 -Chloro-1-[2-(4-methylpiperazin-1-yl)-2-oxoethyl]-1H-indole-3-carboxylic acid [4-(4-butyryl-5-methylpyrazol-1-yl)piperidin-1-yl]amide hydrochloride] yielded an inhibition at 1 mg/kg in data set [1] (intravenous infusion, dose 1 mg/kg, t = 2 h after administration) of 88 ± 5%. Further, the inhibition at 3 mg/kg in data set [1] (setting [4]) was determined as 72 ± 15%. The concentration for half-maximal inhibition (IC50) in data set [2] came out at 43 nM; in data set [3], 25 nM.

In data set [2], `CCCC(=O)c1cnn(C2CCN(NC(=O)c3cn(CC(=O)N4CCN(CCOC)CC4)c4ccc(Cl)cc34)CC2)c1C` [Compound 5, 5-Chloro-1-{2-[4-(2-methoxyethyl)piperazin-1-yl]-2-oxoethyl}-1H-indole-3-carboxylic acid [4-(4-butyryl-5-methylpyrazol-1-yl-piperidin-1-yl]amide hydrochloride] came in with a concentration for half-maximal inhibition (IC50) of 17 nM.

With `CCCC(=O)c1cnn(C2CCN(NC(=O)c3cn(CC(=O)N4CCN(CCOC(F)(F)F)CC4)c4ccc(Cl)cc34)CC2)c1C` [Compound 6, 5-Chloro-1-{2-oxo-2-[4-(2-trifluoromethoxyethyl)piperazin-1-yl]ethyl}-1H-indole-3-carboxylic acid [4-(4-butyryl-5-methylpyrazol-1-yl)piperidin-1-yl]amide hydrochloride], the IC50 in data set [2] was 46 nM.

Source of the values: patent publication US20150274703A1, “1H-Indole-3-Carboxamide Derivatives And Use Thereof As P2Y12 Antagonists” (SANOFI, priority 2012, published 2015).
